Source: US6416964B2, “Methods of identifying modulators of kinases responsive to stress” (Merck & Co., Inc., priority 1998, dated 2002)

Tests used:
[1] = test system: 34 kDa Mst kinase (Mst 1 cleavage); assay: 34 kDa Mst kinase activation / Mst 1 cleavage in purified osteoclasts; assay type: cell-based; settings: for activation of the 34 kDa Mst kinase: purified osteoclasts
50 kDa Kinase [2] = assay: in-gel kinase assay in HEK 293 transfectants expressing human αvβ3 integrin; assay type: cell-based; settings: αvβ3 integrin transfected HEK 293 cells
stress reponsive kinases = assay: activation of stress responsive kinases by compounds that modify osteoclast function; assay type: cell-based
Experimental: (§1) Preosteoclasts are generated and purified as described in Example 1. […] Untreated cells are included in the analyses and act as a negative control for kinase activities. Cells are then harvested and lysed in a HEPES (N-(2-hydroxyethyl)piperazine-N′-(2-ethansulfonic acid) or Tris buffer containing the following: β-glycerophosphate (50 mM); Na3VO4 (1 mM); NaF (1 mM); Microcystin LR (1 μM); leupeptin (10 μg/ml); aprotinin (10 μg/ml); phenylmethyl sulfonylfluoride (1 mM). Protein concentrations are determined for each lysate and 5-20 μg are loaded into each lane of a SDS-PAGE (sodium dodecyl sulfate-polyacrylamide gel electrophoresis) gel containing Myelin Basic Protein, or another kinase substrate, which has been polymerized into the gel at a concentration between 50-400 μg/ml. Molecular weight standards are also loaded into one or more lanes of the gels. In-gel kinase assays are run according to a standard procedure based on Kameshita and Fujisawa, 1989 (Anal. Biochem. 183:139-143) and of Gotoh et al., 1990 (Eur. J. Biochem. 193: 661-669), both references being incorporated by reference herein in their entirety. The proteins are electrophoresed in the above gels. The gels are then successively soaked in 50 mM HEPES, pH 7.6; 5 mM 2-mercaptoethanol and each of the following (for each wash): (a) 20% isopropanol; (b) no additions; (c) urea (6 M); (d) Urea (3 M); (e) Urea (0.75 M); and Tween 20 (0.05% vol:vol). Kinase reactions are then run by first soaking the gels in 20 mM HEPES, pH 7.6; 20 mM MgCl2; 2 mM DTT and then in the same buffer containing […] (non-radioactive) with ca. 1000 cpm/pmol ^32P-γ-ATP. The gels are then washed six times with 5% trichloroacetic acid and 1% pyrophosphate. The gels are then stained with Coomassie brilliant blue dye (0.125%) in 50% methanol, 10% acetic acid; destained with 30% methanol, 10% acetic acid; soaked in 2% glycerol; and dried using a gel dryer. The gels are then exposed to autoradiography film for times ranging from several hours to weeks. The bands observed in the autoradipgraphs representing the gels reflect kinase activities. […] The band intensities on the autoradiography film are quantitated by densitometry and comparisons between bands from untreated controls and bands from echistatin-treated cells provide the basis for the analyses.

[3] = test system: approximately 60 kDa kinase doublet (Mst 1, Mst 2); assay: in-gel kinase assay (myelin basic protein substrate) in purified preosteoclasts; assay type: cell-based, mouse
Experimental: (§2) The following procedure is a modification of Wesolowski et al. (1995, Exp. Cell Res. 219: 679-686), which is incorporated by reference herein in its entirety. Cocultures are made by adding marrow cells from 6-week old mouse tibia and femur onto a monolayer of MB 1.8 mouse calvaria osteoblasts that are preseeded into culture dishes in α-MEM (minimal essential medium) containing fetal calf serum (10%) and 1,25 Dihydroxy Vitamin D3 (10 nM). Cocultures are maintained, with media changes every 48 hours, for a period of 6 days. Non-osteoclastic cells are removed by treatment of cocultures with Collagenase I (1 mg/ml in Phosphate Buffered Saline [PBS]). Collagenase-sensitive cells are removed by washing with PBS. Preosteoclasts are lifted from the dish using EDTA (0.2 g/L in PBS) and transferred into culture dishes and maintained in α-MEM containing fetal calf serum (10%), 1,25 Dihydroxy Vitamin D3 (10 nM), and m-Colony Stimulating Factor (5 ng/ml). Osteoclast-like cells (collagenase-insensitive, EDTA-insensitive cells) that remain attached to the original coculture dishes are maintained in α-MEM containing fetal calf serum (10%), 1,25 Dihydroxy Vitamin D3 (10 nM), and m-Colony Stimulating Factor (5 ng/ml).
as §1

50 kDa Kinase [4] = assay: as above; assay type: cell-based, mouse
Experimental: as §2, §1

Mst 1, Mst 2 [5] = assay: in-gel kinase assay in HEK 293 transfectants expressing human αvβ3 integrin; assay type: cell-based; settings: αvβ3 integrin transfected HEK 293 cells
34 kDa Kinase = assay: in-gel kinase assay in osteoclast-like cells; assay type: cell-based, mouse
Experimental: as §2, §1
A similar approach is also used to assay for the 34 kDa Kinase and the 130 kDa Kinase.
Osteoclast-like cells are generated as described in Example 1. The compound or compounds to be evaluated are added at the desired concentration to the osteoclast-like cells for any of various times (1 minute to several hours). Cell lysates are made using standard techniques and in-gel kinase assays are performed as described in Example 2.

50 kDa Kinase [6] = assay: in-gel kinase assay in Parental HEK 293 cells; assay type: cell-based, human; settings: 10-60 min (FIG. 5D-5F), Ala^24 echistatin 30 nM
Mst 1, Mst 2 [7] = assay: in-gel kinase assay in Parental HEK 293 cells; assay type: cell-based, human; settings: 10-60 min (FIG. 5D-5F), Ala^24 echistatin 30 nM
[8] = osteoclast like cells, 30 μM and 100 μM, about 17 hours (FIG. 6)
[9] = osteoclast-like cells, 100 μM and 300 μM (FIG. 9)
[10] = dose response, standard (overnight) film exposure (FIG. 2A)

Molecule: O=P(O)(O)C(Cl)(Cl)P(=O)(O)O [Clodronate, 1,1-dichloromethylene-1,1-diphosphonic acid]
- activation of the 34 kDa Mst kinase [1]: also induce

Molecule: O=C(NC[C@H](NS(=O)(=O)c1ccccc1)C(=O)O)c1ccc(OCCNC2=NCCCN2)cc1 [RGD II, (2-[N-(3,4,5,6-tetrahydropyrimidin-2-yl)amino]ethyloxyphen-4-yl)carbonyl-2(S)-phenylsulfonamido-beta-alanine]
- change in 50 kDa Kinase activity (50 kDa Kinase [2]; 10 μM, 0-60 min (FIG. 5B)): increase
- activation of stress responsive kinases (stress reponsive kinases): activate
- activation of Mst 1, Mst 2 ([3]; 10 μM (FIG. 4B)): effective in activating
- activation of 50 kDa kinase (50 kDa Kinase [4]; 10 μM (FIG. 4B)): effective in activating
- change in Mst 1 (ca. 59 kDa), Mst 2 (ca. 60 kDa) activities (Mst 1, Mst 2 [5]; 10 μM, 0-60 min (FIG. 5B)): increase

Molecule: Cl.Cl.Cl.O=C(O)C[C@H](Cc1cnc2ccccc2c1)NC(=O)CN1CC[C@H](NCc2ccc3c(n2)NCCC3)C1=O [RGD I]
- activation of stress responsive kinases (stress reponsive kinases): activate
- activation of Mst 1, Mst 2 ([3]; 10 nM (FIG. 4B)): effective in activating
- activation of 50 kDa kinase (50 kDa Kinase [4]; 10 nM (FIG. 4B)): effective in activating

Molecule: NCCCC(O)(P(=O)(O)O)P(=O)(O)O [alendronate, 4-amino-1-hydroxybutylidene-1,1-bisphosphonic acid monosodium trihydrate]
- activation of stress responsive kinases (stress reponsive kinases): activate
- activation of the 34 kDa Mst kinase [1]: induce activation
- activation of 34 kDa Kinase (34 kDa Kinase; osteoclast like cells, 30 μM (FIG. 7, lane 2)): activation
- activation of 34 kDa Kinase (34 kDa Kinase; [8]): activation
- activation of 34 kDa Kinase (34 kDa Kinase; osteoclast-like cells, 10 μM and 30 μM, about 17 hours (FIG. 9)): activation
- activation of 34 kDa Kinase immunoprecipitated by anti-Mst and anti-Krs antibody cocktail (34 kDa Kinase; osteoclast-like cells, 30 μM (FIG. 10, lane 3)): activated
- activation of 34 kDa Kinase when coincubated with caspase inhibitor Z—VAD—FMK (34 kDa Kinase; osteoclast-like cells, in the presence of Z—VAD—FMK (FIG. 9, lane 8)): does not activate

Molecule: CC(O)(P(=O)(O)O)P(=O)(O)O [etidronate disodium, 1-hydroxyethane-1,1-diphosphonic acid]
- activation of the 34 kDa Mst kinase [1]: to a lesser extent
- activation of 34 kDa Kinase (34 kDa Kinase; [8]): failed to activate
- activation of 34 kDa Kinase (34 kDa Kinase; [9]): failed to activate

Molecule: CC(C)=CCCC(C)=CCCC(C)=CCO [farnesol]
- blocking of lovastatin effects (34 kDa Mst 1 activity) [1]: not
- reduction of alendronate- and risedronate-induced Mst 1 cleavage [1]: about 50%

Molecule: CC(C)=CCC/C(C)=C/CC/C(C)=C/CC/C(C)=C/CO [geranylgeraniol]
- blocking of alendronate- and risedronate-induced Mst 1 cleavage [1]: essentially completely blocked
- blocking of clodronate effects (34 kDa Mst kinase) [1]: not blocked
- blocking of lovastatin effects (34 kDa Mst 1 activity) [1]: blocked
- effect on activation of 34 kDa Kinase by 30 μM alendronate monosodium trihydrate (34 kDa Kinase; osteoclast like cells, 10 μM geranyl geraniol (FIG. 7, lane 3)): negates this activation

Molecule: CC[C@H](C)C(=O)O[C@H]1C[C@@H](C)C=C2C=C[C@H](C)[C@H](CC[C@@H]3C[C@@H](O)CC(=O)O3)[C@H]21 [lovastatin]
- 34 kDa Mst 1 activity ([1]; treatment for 17-24 hours): increases

Molecule: C[C@@]1(O)CCOC(=O)C1 [mevalonic acid lactone]
- reduction of alendronate- and risedronate-induced Mst 1 cleavage [1]: about 50%

Molecule: C[C@@](O)(CCO)CC(=O)O [mevalonic acid]
- blocking of lovastatin effects (34 kDa Mst 1 activity) [1]: blocked

Molecule: NCCC(O)(P(=O)(O)O)P(=O)(O)O [pamidronate, 3-amino-1-hydroxypropylidene-1,1-bisphosphonic acid]
- activation of the 34 kDa Mst kinase [1]: induce activation

Molecule: O=P(O)(O)C(O)(Cc1cccnc1)P(=O)(O)O [risedronate, 1-hydroxy-2-(3-pyridinyl)-ethylidene-1,1-bisphosphonic acid]
- activation of the 34 kDa Mst kinase [1]: induce activation

Molecule: O=P(O)(O)C(Sc1ccc(Cl)cc1)P(=O)(O)O [tiludronate disodium, (4-chlorophenyl)thiomethane-1,1-disphosphonic acid]
- activation of 34 kDa Kinase (34 kDa Kinase; [8]): failed to activate
- activation of 34 kDa Kinase (34 kDa Kinase; [9]): failed to activate

Molecule: calcitonin
- activation of stress responsive kinases (stress reponsive kinases): activate

Molecule: echistatin
- change in 50 kDa Kinase activity (50 kDa Kinase [2]; 30 nM, 0-60 min (FIG. 5A, 5C)): increase
- activation of stress responsive kinases (stress reponsive kinases): activate
- activation of approximately 60 kDa kinase doublet ([3]; 30 nM, time course (FIG. 1B)): strongly activated
- concentration of maximal activities of approximately 60 kDa kinase doublet [3, 10]: about 30 nM
- concentrations showing activation of approximately 60 kDa kinase doublet [3, 10]: ≥ 10 nM
- treatment time of maximal kinase activity ([3]; timecourse (FIG. 4A)): 20 min
- activation of kinase of approximately 50 kDa (50 kDa Kinase [4]; 30 nM, time course (FIG. 1B)): also activated
- activation of the approximately 50 kDa kinase (50 kDa Kinase [4]; 30 and 100 nM doses, extended (about 3-4 days) exposure (FIG. 2B)): activation
- change in Mst 1 (ca. 59 kDa), Mst 2 (ca. 60 kDa) activities (Mst 1, Mst 2 [5]; 30 nM, 0-60 min (FIG. 5A, 5C)): increase
- effect on activity of 50 kDa Kinase (50 kDa Kinase [6]): no significant effect
- effect on activities of Mst 1, Mst 2 (Mst 1, Mst 2 [7]): no significant effect
